Measured values taken from patent US10947202B2, “Sodium ion channel inhibitors and pharmaceutically acceptable salts and polymorphs thereof and uses thereof” (SHANGHAI HAIYAN PHARMACEUTICAL TECHNOLOGY CO., LTD., priority 2017, dated 2021).
≈ marks a conversion by molar mass, not a printed value.

How the values were obtained:
Assay type in all cases: physicochemical
[1] = Hygroscopicity experiment (DVS)
From the text: The Dynamic Vapor Sorption (DVS) curve was acquired on the DVS Intrinsic of Surface Measurement Systems.
The DVS results for crystal forms A, D, E-3 and F are shown in FIG. 1E, FIG. 4F, FIG. 7E and FIG. 8E, respectively.

[2] = Stability experiment (storage of crystal forms, HPLC)
Procedure: High performance liquid chromatography spectrum was acquired on an Agilent 1260 HPLC, the specific instrument and test parameters are shown in the table 18 below.
Another set of samples were sealed at 5° C. and kept as a control at the same time. […]

Solubility experiment = settings: for Solubility (mg/mL) 0.1M HCl / Solubility (mg/mL) H2O: room temperature; for Solubility (mg/mL) pH6.8: buffer pH 6.8, room temperature; for Solubility (mg/mL) H2O: water
Procedure: The solubility of crystal forms A, D, E-1, E-3, F and free base sample in buffer of 0.1M HCl, pH 4.5, pH 6.8 and water was tested at room temperature. In the test, the standard curves of free base sample and five crystal forms were plotted. Subsequently, 6 mg of API and five crystal form samples were weighed, respectively, and 2 ml of the solvent was added, the mixture was shaken at room temperature for 4 h, then ultrasonicated for 30 min, centrifuged, and the supernatant was taken out, filtered through a 0.45 μm filter and injected, and the solubility was measured, the results are shown in Table 28 (concentration is in mg/ml).

[3] = Crystal form stability on shaking in solvent or heating (XRPD)
Procedure: The reaction solution in the step 4 of Example 1 was poured into water, extracted with ethyl acetate, dried and concentrated, ethanol was added to dissolve and the solution was evaporated, 1N hydrochloric acid and ethyl acetate were added and stirred for 1-2 h, filtered, a solid product which was the crystal form III of free base was obtained, the X-ray powder diffraction pattern is shown in FIG. 11A (the 2θ angle has been marked), the DSC/TGA/DVS patterns are shown in FIGS. 11B, 11C and 11D. According to the DSC pattern, there is an inflection point around 100° C., and the sample has a melting absorption peak at 181.9° C. […] The sample was shaken in ACE and MeOH at 50° C. for 1 day, and the crystal form was unchanged.
The reaction solution in the step 4 of Example 1 was poured into water, extracted with ethyl acetate, dried and concentrated to retain a small amount of ethyl acetate, 1N hydrochloric acid was added and stirred for 1 h, filtered, the filter cake was washed with ethanol and then filtered to obtain a solid product which was the crystal form IV of free base was obtained. The X-ray powder diffraction pattern is shown in FIG. 12A (the […] has been marked), the DSC/TGA/DVS patterns are shown in FIGS. 12B, 12C and 12D. […] The sample was shaken in ACE at 50° C. for 1 day, and the crystal form was unchanged. […]

[4] = 5° C. 0 d, — = below detection limit
[5] = 40° C. 75% RH 14 d, — = below detection limit
[6] = 60° C. 7 d, — = below detection limit
[7] = 60° C. 21 d, — = below detection limit
[8] = buffer pH 4.5, room temperature

Structure (SMILES) | hygroscopicity (DVS curve) [1] | RRT (%) 0.86 ([2]; 5° C. 0 d) | RRT (%) 1.00 ([2]; 5° C. 0 d) | RRT (%) 1.05 ([2]; 5° C. 0 d) | Total impurities (%) ([2]; 5° C. 0 d) | Content (%) ([2]; 40° C. 75% RH 14 d) | RRT (%) 1.00 ([2]; 40° C. 75% RH 14 d) | RRT (%) 1.05 ([2]; 40° C. 75% RH 14 d) | Total impurities (%) ([2]; 40° C. 75% RH 14 d) | Content (%) ([2]; 60° C. 7 d) | RRT (%) 0.86 ([2]; 60° C. 7 d) | RRT (%) 1.00 ([2]; 60° C. 7 d) | RRT (%) 1.05 ([2]; 60° C. 7 d) | Total impurities (%) ([2]; 60° C. 7 d) | Content (%) ([2]; 60° C. 21 d) | RRT (%) 1.00 ([2]; 60° C. 21 d) | RRT (%) 1.05 ([2]; 60° C. 21 d) | Solubility (mg/mL) 0.1M HCl (Solubility experiment) | Solubility (mg/mL) pH6.8 (Solubility experiment) | Solubility (mg/mL) H2O (Solubility experiment) | further results
Cc1cc(N2CCN(Cc3cc(F)c(C(=O)NS(=O)(=O)C4CC4)cc3Cl)CC2)ccc1Cl [crystal form A, 5-chloro-4-((4-(4-chloro-3-methylphenyl)piperazin-1-yl)methyl)-N-(cyclopropylsulfonyl)-2-fluorobenzamide] | slightly hygroscopic | 0.05% | 99.84% | 0.04% | 0.16% | 99.8% | 99.83% | 0.02% | 0.17% | 98.6% | 0.05% | 99.84% | 0.02% | 0.16% | 97.6% | 99.82% | 0.03% | 0.011 mg/mL (≈ 22 µM) | 0.01 mg/mL | 0.005 mg/mL (≈ 9.99 µM) | moisture absorbed (DVS) ([1]; at 95% RH): 0.4%; RRT (%) 0.79 [2, 4]: 0.07%; RRT (%) 0.79 [2, 5]: 0.07%; RRT (%) 0.88 [2, 5]: 0.04%; RRT (%) 0.79 [2, 6]: 0.08%; Total impurities (%) ([2]; 60° C. 21 d): 0.18%; RRT (%) 0.79 [2, 7]: 0.07%; RRT (%) 0.86 [2, 7]: 0.02%; RRT (%) 0.88 [2, 7]: 0.05%; Solubility (mg/mL) pH4.5 (Solubility experiment; [8]): 0.001 mg/mL
Cc1cc(N2CCN(Cc3cc(F)c(C(=O)NS(=O)(=O)C4CC4)cc3Cl)CC2)ccc1Cl [crystal form D, 5-chloro-4-((4-(4-chloro-3-methylphenyl)piperazin-1-yl)methyl)-N-(cyclopropylsulfonyl)-2-fluorobenzamide] | almost no hygroscopicity | 0.03% | 99.90% | 0.03% | 0.11% | 100.2% | 99.90% | 0.03% | 0.09% | 98.9% | 0.03% | 99.90% | 0.03% | 0.11% | 99.1% | 99.91% | 0.03% | 0.018 mg/mL (≈ 36 µM) | 0.016 mg/mL | 0.005 mg/mL (≈ 9.99 µM) | moisture absorbed (DVS) ([1]; at 95% RH): 0.07%; RRT (%) 0.79 [2, 4]: 0.04%; RRT (%) 0.79 [2, 5]: 0.04%; RRT (%) 0.88 [2, 5]: 0.02%; RRT (%) 0.79 [2, 6]: 0.04%; Total impurities (%) ([2]; 60° C. 21 d): 0.09%; RRT (%) 0.79 [2, 7]: 0.04%; RRT (%) 0.88 [2, 7]: 0.02%; Solubility (mg/mL) pH4.5 (Solubility experiment; [8]): 0.002 mg/mL
Cc1cc(N2CCN(Cc3cc(F)c(C(=O)NS(=O)(=O)C4CC4)cc3Cl)CC2)ccc1Cl [crystal form E-1, 5-chloro-4-((4-(4-chloro-3-methylphenyl)piperazin-1-yl)methyl)-N-(cyclopropylsulfonyl)-2-fluorobenzamide] | – | – | – | – | – | – | – | – | – | – | – | – | – | – | – | – | – | 0.019 mg/mL (≈ 38 µM) | 0.035 mg/mL | >2.669 mg/mL | Solubility (mg/mL) pH4.5 (Solubility experiment; [8]): 0.002 mg/mL
Cc1cc(N2CCN(Cc3cc(F)c(C(=O)NS(=O)(=O)C4CC4)cc3Cl)CC2)ccc1Cl [crystal form E-3, 5-chloro-4-((4-(4-chloro-3-methylphenyl)piperazin-1-yl)methyl)-N-(cyclopropylsulfonyl)-2-fluorobenzamide] | has hygroscopicity | 0.08% | 99.79% | 0.06% | 0.26% | 106.4% | 99.71% | 0.04% | 0.29% | 99.5% | 0.08% | 99.78% | 0.06% | 0.22% | 105.1% | 99.71% | 0.04% | 0.016 mg/mL (≈ 32 µM) | 0.096 mg/mL | >2.780 mg/mL | moisture absorbed (DVS) ([1]; when RH is 85%): 2%; RRT (%) 0.54 [2, 4]: 0.13%; RRT (%) 0.54 [2, 5]: 0.09%; RRT (%) 0.86 [2, 5]: 0.07%; RRT (%) 0.54 [2, 6]: 0.09%; Total impurities (%) ([2]; 60° C. 21 d): 0.30%; RRT (%) 0.54 [2, 7]: 0.08%; RRT (%) 0.86 [2, 7]: 0.07%; solubility at 4 h (Solubility experiment; buffer pH 4.5, pH 4.5, aqueous buffer, thermodynamic from solid, buffer pH 4.5, room temperature, read-out: Solubility (mg/mL) pH4.5): 0.002 mg/mL (≈ 4 µM)
Cc1cc(N2CCN(Cc3cc(F)c(C(=O)NS(=O)(=O)C4CC4)cc3Cl)CC2)ccc1Cl [crystal form F, 5-chloro-4-((4-(4-chloro-3-methylphenyl)piperazin-1-yl)methyl)-N-(cyclopropylsulfonyl)-2-fluorobenzamide] | has hygroscopicity | 0.05% | 99.86% | 0.03% | 0.14% | 98.4% | 99.90% | 0.04% | 0.10% | 99.7% | 0.03% | 99.87% | 0.04% | 0.13% | 101.0% | 99.80% | 0.03% | 0.017 mg/mL (≈ 34 µM) | 0.050 mg/mL | >3.154 mg/mL | moisture absorbed (DVS) ([1]; when RH is 85%): 4%; RRT (%) 0.79 [2, 4]: 0.06%; RRT (%) 0.79 [2, 5]: 0.04%; RRT (%) 0.79 [2, 6]: 0.06%; Total impurities (%) ([2]; 60° C. 21 d): 0.20%; RRT (%) 0.79 [2, 7]: 0.05%; RRT (%) 0.86 [2, 7]: 0.03%; RRT (%) 0.88 [2, 7]: 0.02%; Solubility (mg/mL) pH4.5 (Solubility experiment; [8]): 0.002 mg/mL
Cc1cc(N2CCN(Cc3cc(F)c(C(=O)NS(=O)(=O)C4CC4)cc3Cl)CC2)ccc1Cl [crystal form I, 5-chloro-4-((4-(4-chloro-3-methylphenyl)piperazin-1-yl)methyl)-N-(cyclopropylsulfonyl)-2-fluorobenzamide] | slightly hygroscopic | – | – | – | – | – | – | – | – | – | – | – | – | – | – | – | – | – | – | – | stability of the crystal form (assessment in words) [3]: good stability
Cc1cc(N2CCN(Cc3cc(F)c(C(=O)NS(=O)(=O)C4CC4)cc3Cl)CC2)ccc1Cl [crystal form II, 5-chloro-4-((4-(4-chloro-3-methylphenyl)piperazin-1-yl)methyl)-N-(cyclopropylsulfonyl)-2-fluorobenzamide] | hygroscopic | – | – | – | – | – | – | – | – | – | – | – | – | – | – | – | – | – | – | – | –
